Experimental data reported in PubChem BioAssay AID256 (DTP/NCI, 2004).
Values joined by “and” are separate entries in the source; they are usually repeats but may differ in a detail not shown here. Equal entries are not always repeated. Toxic doses and inconclusive results are not listed. Rule for the calls: active = survival T/C of 150% or more; inactive = T/C below 125% in these data.

System: CD2F1 mice, L1210 leukemia ip, survival T/C
Test: NCI In Vivo Anticancer Drug Screen. Data for tumor model L1210 Leukemia (intraperitoneal) in CD2F1 (CDF1) mice
Conditions: higher = longer survival
Procedure, shortened: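 Each value reflects a quotient of treated over vehicle control outcomes in mice with a transplanted tumor.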

[1] = endpoint: mean survival time, dose: 100.0 mg/kg/injection, schedule: Q01DX009 (ip), vehicle: saline with Tween-80
[2] = endpoint: mean survival time, dose: 200.0 mg/kg/injection, schedule: Q01DX009 (ip), vehicle: saline with Tween-80
[3] = endpoint: mean survival time, dose: 400.0 mg/kg/injection, schedule: Q01DX009 (ip), vehicle: saline with Tween-80
[4] = endpoint: mean survival time, dose: 100.0 mg/kg/injection, schedule: Q04DX003 (ip), vehicle: saline with Tween-80
[5] = endpoint: mean survival time, dose: 200.0 mg/kg/injection, schedule: Q04DX003 (ip), vehicle: saline with Tween-80
[6] = endpoint: mean survival time, dose: 400.0 mg/kg/injection, schedule: Q04DX003 (ip), vehicle: saline with Tween-80
[7] = endpoint: mean survival time, dose: 100.0 mg/kg/injection, schedule: Q04DX003 (ip), vehicle: saline
[8] = endpoint: mean survival time, dose: 200.0 mg/kg/injection, schedule: Q04DX003 (ip), vehicle: saline
[9] = endpoint: mean survival time, dose: 400.0 mg/kg/injection, schedule: Q04DX003 (ip), vehicle: saline

Measured: T/C

CC(=O)Nc1ccc(CCc2nc(NC(C)=O)nc(Cl)c2-c2ccc(Cl)c(Cl)c2)cc1
inactive: endpoint: mean survival time, dose: 75.0 mg/kg/injection, schedule: Q01DX001 (ip), vehicle: saline with Tween-80 103 % of control | endpoint: mean survival time, dose: 150.0 mg/kg/injection, schedule: Q01DX001 (ip), vehicle: saline with Tween-80 101 % of control | endpoint: mean survival time, dose: 300.0 mg/kg/injection, schedule: Q01DX001 (ip), vehicle: saline with Tween-80 94 % of control

CCCCCCCCC/C(=N\Nc1ccc([N+](=O)[O-])cc1[N+](=O)[O-])c1ccccc1
inactive: [1] 97 % of control | [2] 87 % of control | [3] 94 % of control

N#CC1C(=N)Cc2ccccc2-c2ccccc21 (stereo unspecified)
inactive: [1] 96 % of control | [4] 108 % of control | [2] 93 % of control | [5] 101 % of control | [3] 106 % of control | [6] 101 % of control

CCCCN(CCCC)P1(=O)OCCO1
inactive: endpoint: mean survival time, dose: 100.0 mg/kg/injection, schedule: Q04DX002 (ip), vehicle: saline 103 % of control | endpoint: mean survival time, dose: 200.0 mg/kg/injection, schedule: Q04DX002 (ip), vehicle: saline 107 % of control | endpoint: mean survival time, dose: 400.0 mg/kg/injection, schedule: Q04DX002 (ip), vehicle: saline 98 % of control

O=C1NC(=O)NC(C(=O)O)N1
inactive: endpoint: mean survival time, dose: 1.56 mg/kg/injection, schedule: Q01DX009 (ip), vehicle: DMSO 92 % of control | endpoint: mean survival time, dose: 3.12 mg/kg/injection, schedule: Q01DX009 (ip), vehicle: DMSO 96 % of control | endpoint: mean survival time, dose: 6.25 mg/kg/injection, schedule: Q01DX009 (ip), vehicle: DMSO 96 % of control | endpoint: mean survival time, dose: 12.5 mg/kg/injection, schedule: Q01DX009 (ip), vehicle: DMSO 94 % of control and 98 % of control | endpoint: mean survival time, dose: 25.0 mg/kg/injection, schedule: Q01DX009 (ip), vehicle: DMSO 97 % of control and 98 % of control and 101 % of control | endpoint: mean survival time, dose: 50.0 mg/kg/injection, schedule: Q01DX009 (ip), vehicle: DMSO 97 % of control and 100 % of control | endpoint: mean survival time, dose: 100.0 mg/kg/injection, schedule: Q01DX009 (ip), vehicle: DMSO 94 % of control and 97 % of control | endpoint: mean survival time, dose: 200.0 mg/kg/injection, schedule: Q01DX009 (ip), vehicle: DMSO 102 % of control | endpoint: mean survival time, dose: 400.0 mg/kg/injection, schedule: Q01DX009 (ip), vehicle: DMSO 98 % of control

CCO/C=C1\SC(=S)N(c2cccc(OC)c2)C1=O
inactive: [4] 96 % of control | [5] 106 % of control | [6] 101 % of control

CC(C)(C)COC(=O)Nc1cccc(O)c1
inactive: [4] 96 % of control | [5] 95 % of control | [6] 102 % of control

COC(=O)/C=C(/Nc1ccccc1C(=O)O)C(=O)OC
inactive: [7] 89 % of control | [8] 101 % of control | [9] 90 % of control

COc1ccccc1NC(N)=O
inactive: [1] 95 % of control | [2] 86 % of control | [3] 95 % of control

CC(C)c1ccc(C2CCCCC2O)cc1 (stereo unspecified)
inactive: [1] 89 % of control | [4] 105 % of control | [2] 92 % of control | [5] 91 % of control | [6] 94 % of control

O=CNc1cccc(Cl)c1
inactive: [1] 96 % of control | [4] 100 % of control | [2] 95 % of control | [5] 90 % of control | [3] 96 % of control | [6] 90 % of control

C1CN2CCOB(O1)OCC2
inactive: [7] 94 % of control | [8] 98 % of control | [9] 93 % of control

COC(=O)[C@]1(C)CCC[C@]2(C)[C@H]3CC4OO[C@@]3(CC[C@H]21)[C@H]1O[C@@]41C(C)C
inactive: [1] 97 % of control | endpoint: mean survival time, dose: 125.0 mg/kg/injection, schedule: Q01DX009 (ip), vehicle: Klucel (hydroxypropylcellulose) (HPC) 96 % of control | [2] 101 % of control | endpoint: mean survival time, dose: 250.0 mg/kg/injection, schedule: Q01DX009 (ip), vehicle: Klucel (hydroxypropylcellulose) (HPC) 96 % of control | [3] 98 % of control | endpoint: mean survival time, dose: 500.0 mg/kg/injection, schedule: Q01DX009 (ip), vehicle: Klucel (hydroxypropylcellulose) (HPC) 97 % of control

CN(C)C(=O)c1ccc(Cl)c(Cl)c1
inactive: [1] 102 % of control | [2] 107 % of control

CCOP(=O)(OCC)C(c1ccccc1)(c1ccccc1)c1ccccc1
inactive: endpoint: mean survival time, dose: 100.0 mg/kg/injection, schedule: Q01DX001 (ip), vehicle: Klucel (hydroxypropylcellulose) (HPC) 103 % of control | endpoint: mean survival time, dose: 200.0 mg/kg/injection, schedule: Q01DX001 (ip), vehicle: Klucel (hydroxypropylcellulose) (HPC) 96 % of control | endpoint: mean survival time, dose: 400.0 mg/kg/injection, schedule: Q01DX001 (ip), vehicle: Klucel (hydroxypropylcellulose) (HPC) 102 % of control

c1csc(C[N+]23CN4CN(CN(C4)C2)C3)c1
inactive: endpoint: median survival time, dose: 12.5 mg/kg/injection, schedule: Q01DX009 (ip), vehicle: saline 103 % of control | endpoint: median survival time, dose: 25.0 mg/kg/injection, schedule: Q01DX009 (ip), vehicle: saline 107 % of control | endpoint: median survival time, dose: 50.0 mg/kg/injection, schedule: Q01DX009 (ip), vehicle: saline 107 % of control | endpoint: median survival time, dose: 100.0 mg/kg/injection, schedule: Q01DX009 (ip), vehicle: saline 108 % of control | endpoint: median survival time, dose: 200.0 mg/kg/injection, schedule: Q01DX009 (ip), vehicle: saline 101 % of control | endpoint: median survival time, dose: 400.0 mg/kg/injection, schedule: Q01DX009 (ip), vehicle: saline 109 % of control

CCOC(=O)C(=O)Cc1cc(=O)cc(C)o1
inactive: [1] 95 % of control | [2] 92 % of control | [3] 93 % of control

CCCCNC(=O)Oc1ccc(OCc2ccccc2)cc1
inactive: [1] 96 % of control | [4] 94 % of control | [2] 89 % of control | [5] 91 % of control | [3] 92 % of control

CN1CCCC1CCNc1nc(-c2ccc(C(Cl)(Cl)Cl)cc2)nc(C(Cl)(Cl)Cl)n1 (stereo unspecified)
inactive: endpoint: mean survival time, dose: 100.0 mg/kg/injection, schedule: Q01DX001 (ip), vehicle: saline with Tween-80 95 % of control | [1] 95 % of control | endpoint: mean survival time, dose: 200.0 mg/kg/injection, schedule: Q01DX001 (ip), vehicle: saline with Tween-80 95 % of control | endpoint: mean survival time, dose: 400.0 mg/kg/injection, schedule: Q01DX001 (ip), vehicle: saline with Tween-80 94 % of control

COc1ccccc1-n1c(C)nc2c(cnn2C2OC(CO)C(O)C2O)c1=O (stereo unspecified)
inactive: endpoint: mean survival time, dose: 12.5 mg/kg/injection, schedule: Q01DX005 (ip), vehicle: saline 107 % of control | endpoint: mean survival time, dose: 25.0 mg/kg/injection, schedule: Q01DX005 (ip), vehicle: saline 101 % of control | endpoint: mean survival time, dose: 50.0 mg/kg/injection, schedule: Q01DX005 (ip), vehicle: saline 101 % of control | endpoint: mean survival time, dose: 100.0 mg/kg/injection, schedule: Q01DX005 (ip), vehicle: saline 98 % of control | endpoint: mean survival time, dose: 200.0 mg/kg/injection, schedule: Q01DX005 (ip), vehicle: saline 101 % of control

CCCCN1CCN(CCCC)C1CCC
inactive: endpoint: mean survival time, dose: 25.0 mg/kg/injection, schedule: Q01DX009 (ip), vehicle: saline with Tween-80 98 % of control | endpoint: mean survival time, dose: 50.0 mg/kg/injection, schedule: Q01DX009 (ip), vehicle: saline with Tween-80 102 % of control | [1] 96 % of control

CC(C)OC(CCCl)c1ccc(Cl)cc1 (stereo unspecified)
inactive: [1] 104 % of control | [4] 94 % of control | [2] 96 % of control | [5] 96 % of control | [3] 89 % of control | [6] 97 % of control

[Ni+2].[S-]Cc1ccccc1.[S-]Cc1ccccc1
inactive: endpoint: mean survival time, dose: 100.0 mg/kg/injection, schedule: Q01DX001 (ip), vehicle: saline 100 % of control | endpoint: mean survival time, dose: 200.0 mg/kg/injection, schedule: Q01DX001 (ip), vehicle: saline 96 % of control

CC(CC(O)(C(F)(F)F)C(F)(F)F)OC(=O)Nc1ccc(Cl)c(Cl)c1 (stereo unspecified)
inactive: endpoint: mean survival time, dose: 100.0 mg/kg/injection, schedule: Q04DX003 (ip), vehicle: Klucel (hydroxypropylcellulose) (HPC) 96 % of control | endpoint: mean survival time, dose: 200.0 mg/kg/injection, schedule: Q04DX003 (ip), vehicle: Klucel (hydroxypropylcellulose) (HPC) 101 % of control | endpoint: mean survival time, dose: 400.0 mg/kg/injection, schedule: Q04DX003 (ip), vehicle: Klucel (hydroxypropylcellulose) (HPC) 101 % of control

CC1(C(Cl)(Cl)Cl)C=CC(=O)C=C1
inactive: endpoint: mean survival time, dose: 50.0 mg/kg/injection, schedule: Q04DX003 (ip), vehicle: saline with Tween-80 101 % of control | [4] 101 % of control | [5] 97 % of control
